Results taken from ChEMBL document CHEMBL5137065, “Recent Advances with KDM4 Inhibitors and Potential Applications” (J Med Chem, 2022).
pEC50, pIC50, pKi: −log10 of the molar value. One block for each compound: values may come before it.

Experiments:
[1] = molecular target: T1, Lysine-specific demethylase 4A (Homo sapiens, UniProt O75164); test: Inhibition of human KDM4A (1 to 350 residues) measured by ELISA assay
T1 sequence (O75164 whole entry): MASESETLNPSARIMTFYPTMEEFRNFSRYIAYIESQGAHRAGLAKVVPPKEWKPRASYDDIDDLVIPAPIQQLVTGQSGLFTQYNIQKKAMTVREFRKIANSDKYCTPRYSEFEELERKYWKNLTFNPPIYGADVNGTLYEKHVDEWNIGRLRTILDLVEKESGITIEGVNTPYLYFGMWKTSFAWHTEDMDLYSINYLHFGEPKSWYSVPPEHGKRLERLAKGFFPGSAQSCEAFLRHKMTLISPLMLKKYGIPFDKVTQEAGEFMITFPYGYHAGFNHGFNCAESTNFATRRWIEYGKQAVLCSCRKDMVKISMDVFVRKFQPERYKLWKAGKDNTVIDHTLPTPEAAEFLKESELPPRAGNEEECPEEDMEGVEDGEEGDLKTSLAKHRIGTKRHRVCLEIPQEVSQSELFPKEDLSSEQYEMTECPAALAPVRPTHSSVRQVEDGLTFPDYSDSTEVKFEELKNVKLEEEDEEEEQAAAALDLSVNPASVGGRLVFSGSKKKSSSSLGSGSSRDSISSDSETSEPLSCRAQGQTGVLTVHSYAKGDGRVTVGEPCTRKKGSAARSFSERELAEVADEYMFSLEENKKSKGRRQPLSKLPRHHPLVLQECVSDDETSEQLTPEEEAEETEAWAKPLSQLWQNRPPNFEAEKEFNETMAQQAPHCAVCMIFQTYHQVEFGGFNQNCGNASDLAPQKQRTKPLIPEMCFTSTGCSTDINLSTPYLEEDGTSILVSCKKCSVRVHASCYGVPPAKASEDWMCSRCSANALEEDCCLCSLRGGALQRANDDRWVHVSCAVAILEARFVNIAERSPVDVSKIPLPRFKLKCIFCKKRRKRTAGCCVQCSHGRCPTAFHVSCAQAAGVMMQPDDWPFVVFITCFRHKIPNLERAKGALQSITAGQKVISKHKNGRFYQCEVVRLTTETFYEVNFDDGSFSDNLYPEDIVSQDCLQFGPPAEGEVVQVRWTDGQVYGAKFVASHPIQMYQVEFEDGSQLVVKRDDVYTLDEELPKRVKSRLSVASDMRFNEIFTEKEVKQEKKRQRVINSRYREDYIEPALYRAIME

[2] = molecular target: T2, Lysine-specific demethylase 4B (Homo sapiens, UniProt O94953); test: Inhibition of KDM4B (unknown origin) measured by ELISA assay
T2 sequence (O94953 whole entry): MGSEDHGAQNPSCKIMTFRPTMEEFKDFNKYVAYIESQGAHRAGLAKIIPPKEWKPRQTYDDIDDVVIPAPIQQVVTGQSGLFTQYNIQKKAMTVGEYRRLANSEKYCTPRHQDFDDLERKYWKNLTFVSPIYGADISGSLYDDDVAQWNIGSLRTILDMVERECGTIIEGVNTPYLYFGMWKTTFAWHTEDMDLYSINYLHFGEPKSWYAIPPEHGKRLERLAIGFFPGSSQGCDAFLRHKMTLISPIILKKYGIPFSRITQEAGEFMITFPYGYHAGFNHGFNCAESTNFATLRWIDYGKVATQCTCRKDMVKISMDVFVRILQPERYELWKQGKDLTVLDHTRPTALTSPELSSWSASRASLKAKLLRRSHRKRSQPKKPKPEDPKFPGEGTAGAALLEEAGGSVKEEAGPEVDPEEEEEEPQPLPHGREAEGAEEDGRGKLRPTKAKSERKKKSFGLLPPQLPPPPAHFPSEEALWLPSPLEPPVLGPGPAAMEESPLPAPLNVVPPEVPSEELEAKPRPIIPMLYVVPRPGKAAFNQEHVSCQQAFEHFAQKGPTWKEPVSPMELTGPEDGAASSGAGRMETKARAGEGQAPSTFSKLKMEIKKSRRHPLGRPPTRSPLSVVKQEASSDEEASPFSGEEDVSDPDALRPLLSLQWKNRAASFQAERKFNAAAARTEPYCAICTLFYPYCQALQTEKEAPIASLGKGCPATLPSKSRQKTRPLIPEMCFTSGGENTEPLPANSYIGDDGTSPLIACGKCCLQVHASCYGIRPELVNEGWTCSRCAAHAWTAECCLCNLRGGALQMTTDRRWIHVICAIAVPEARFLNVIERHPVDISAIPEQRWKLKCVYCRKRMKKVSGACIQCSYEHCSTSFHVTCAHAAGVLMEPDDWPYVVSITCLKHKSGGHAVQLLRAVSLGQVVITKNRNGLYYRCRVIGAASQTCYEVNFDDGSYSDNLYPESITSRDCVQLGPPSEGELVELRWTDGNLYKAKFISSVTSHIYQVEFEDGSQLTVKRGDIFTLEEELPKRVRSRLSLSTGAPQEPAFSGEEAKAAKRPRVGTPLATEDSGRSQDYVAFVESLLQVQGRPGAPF

[3] = Lipophilicity, logD of compound at pH 7.4 by Chromatography; format: physicochemical; conditions: buffer
[4] = molecular target: T1, Lysine-specific demethylase 4A; test: Inhibition of recombinant HQ5-Halo-tagged KDM4A tudor domain (unknown origin) measured by fluorescence polarization assay
[5] = molecular target: T1, Lysine-specific demethylase 4A; test: Inhibition of KDM4A (unknown origin) using H3K9me3 as substrate and measured by LANCE TR-FRET assay
[6] = molecular target: T2, Lysine-specific demethylase 4B; test: Inhibition of KDM4B (unknown origin) using H3K9me3 as substrate and measured by LANCE TR-FRET assay
[7] = molecular target: T3, Lysine-specific demethylase 4D (Homo sapiens, UniProt Q6B0I6); test: Inhibition of KDM4D (unknown origin) using H3K9me3 as substrate and measured by LANCE TR-FRET assay
T3 sequence (Q6B0I6 whole entry): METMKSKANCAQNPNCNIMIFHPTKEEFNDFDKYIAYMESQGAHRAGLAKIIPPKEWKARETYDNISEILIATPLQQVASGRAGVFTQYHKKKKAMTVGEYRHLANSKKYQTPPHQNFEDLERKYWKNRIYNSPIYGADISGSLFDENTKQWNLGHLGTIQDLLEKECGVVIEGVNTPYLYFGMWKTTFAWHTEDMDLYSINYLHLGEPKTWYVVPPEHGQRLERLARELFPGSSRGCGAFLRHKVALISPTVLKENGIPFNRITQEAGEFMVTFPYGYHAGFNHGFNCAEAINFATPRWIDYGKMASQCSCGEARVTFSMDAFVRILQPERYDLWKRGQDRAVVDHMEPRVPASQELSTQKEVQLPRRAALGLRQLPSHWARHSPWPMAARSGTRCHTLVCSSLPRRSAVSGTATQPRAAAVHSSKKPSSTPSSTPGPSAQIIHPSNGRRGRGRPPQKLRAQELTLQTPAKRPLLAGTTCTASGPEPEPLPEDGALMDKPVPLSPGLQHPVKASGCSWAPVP

[8] = molecular target: T2, Lysine-specific demethylase 4B; test: Inhibition of GST-tagged KDM4B (unknown origin) using H3K9(me3)-biotin peptide as substrate incubated for 30 mins and measured after 15 mins by TR-FRET assay
[9] = Antiproliferative activity against human neuroblastoma cells after 3 days by PrestoBlue assay; format: functional, cell-based; conditions: Neuroblastoma cell, 72 h
[10] = test system: KYSE-150 cell line; test: Growth inhibition of human KYSE-150 cells measured after 48 hrs; format: functional
[11] = Inhibition of KDM4 in human KYSE-150 cells assessed as induction of H3K9me3 accumulation measured by immunostaining method; format: cell-based, KYSE-150 cell line
[12] = Inhibition of KDM4 in human MCF7 cells assessed as induction of H3K9me3 accumulation measured by immunostaining method; format: cell-based
[13] = molecular target: T3, Lysine-specific demethylase 4D; test: Inhibition of KDM4D (unknown origin) measured by AlphaLisa-based screening assay
[14] = molecular target: T1, Lysine-specific demethylase 4A; test: Inhibition of KDM4A (unknown origin) measured by AlphaLisa-based screening assay
[15] = molecular target: T4, Lysine-specific demethylase 4E (Homo sapiens, UniProt B2RXH2)
T4 sequence (B2RXH2 whole entry): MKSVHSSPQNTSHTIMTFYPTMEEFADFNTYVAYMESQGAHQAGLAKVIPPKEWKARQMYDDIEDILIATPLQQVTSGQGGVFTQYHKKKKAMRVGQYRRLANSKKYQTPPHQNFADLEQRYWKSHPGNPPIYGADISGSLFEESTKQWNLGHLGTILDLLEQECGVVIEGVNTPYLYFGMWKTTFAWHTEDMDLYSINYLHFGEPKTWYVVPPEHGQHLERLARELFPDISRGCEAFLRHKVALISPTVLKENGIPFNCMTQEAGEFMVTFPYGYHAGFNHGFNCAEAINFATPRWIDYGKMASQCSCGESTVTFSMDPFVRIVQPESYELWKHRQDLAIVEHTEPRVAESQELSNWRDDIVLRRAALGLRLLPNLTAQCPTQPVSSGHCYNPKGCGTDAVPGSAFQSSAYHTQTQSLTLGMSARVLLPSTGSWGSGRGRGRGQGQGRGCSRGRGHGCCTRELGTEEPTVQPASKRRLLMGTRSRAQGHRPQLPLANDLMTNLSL

[16] = molecular target: T5, Lysine-specific demethylase 4C (Homo sapiens, UniProt Q9H3R0); test: Inhibition of N-terminal GST-tagged human KDM4C (2 to 372 residues) expressed in baculovirus-infected Sf9 cells measured by high-throughput mass spectrometry assay
T5 sequence (Q9H3R0 whole entry): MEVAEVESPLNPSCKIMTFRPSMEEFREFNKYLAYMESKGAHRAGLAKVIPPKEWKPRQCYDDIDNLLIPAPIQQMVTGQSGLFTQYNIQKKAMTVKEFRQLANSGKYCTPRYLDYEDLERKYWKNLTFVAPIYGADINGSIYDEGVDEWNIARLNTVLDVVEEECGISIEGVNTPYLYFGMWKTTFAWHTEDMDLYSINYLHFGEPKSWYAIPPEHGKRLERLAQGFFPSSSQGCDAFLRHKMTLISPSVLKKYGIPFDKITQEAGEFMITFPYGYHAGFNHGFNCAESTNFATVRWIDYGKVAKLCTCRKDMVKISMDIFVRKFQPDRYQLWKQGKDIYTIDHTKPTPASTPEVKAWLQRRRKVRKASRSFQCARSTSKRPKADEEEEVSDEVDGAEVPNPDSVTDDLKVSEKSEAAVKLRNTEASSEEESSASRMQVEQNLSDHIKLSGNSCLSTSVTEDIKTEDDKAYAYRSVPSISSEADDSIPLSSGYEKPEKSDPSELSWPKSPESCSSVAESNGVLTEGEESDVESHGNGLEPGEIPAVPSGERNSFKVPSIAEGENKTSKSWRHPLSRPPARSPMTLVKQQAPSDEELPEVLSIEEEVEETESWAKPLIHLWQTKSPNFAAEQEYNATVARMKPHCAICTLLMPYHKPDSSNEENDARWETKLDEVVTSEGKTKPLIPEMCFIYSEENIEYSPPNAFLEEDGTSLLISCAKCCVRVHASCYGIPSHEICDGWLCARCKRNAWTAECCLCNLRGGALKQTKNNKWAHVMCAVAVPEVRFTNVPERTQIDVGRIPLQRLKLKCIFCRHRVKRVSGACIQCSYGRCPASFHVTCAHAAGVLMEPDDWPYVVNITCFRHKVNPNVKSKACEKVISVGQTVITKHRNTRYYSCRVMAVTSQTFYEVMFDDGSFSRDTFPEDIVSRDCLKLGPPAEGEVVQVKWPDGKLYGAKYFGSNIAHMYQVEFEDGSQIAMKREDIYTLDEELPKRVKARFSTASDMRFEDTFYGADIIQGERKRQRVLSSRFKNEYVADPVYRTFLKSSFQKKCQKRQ

[17] = test system: LNCaP; test: Antiproliferative activity against human LNCaP cells measured by Alamarblue assay; format: functional
[18] = test system: DU-145; test: Antiproliferative activity against human DU-145 cells measured by Alamarblue assay; format: functional
[19] = molecular target: T5, Lysine-specific demethylase 4C; test: Inhibition of KDM4C (unknown origin) using H3K9me3 as substrate and measured by LANCE TR-FRET assay
[20] = molecular target: T5, Lysine-specific demethylase 4C; test: Inhibition of KDM4C (unknown origin) using H3K9me3 as substrate and measured by antibody-based assay
[21] = Inhibition of KDM4 (unknown origin) measured by ESI-TOF MS assay; set-up: species or system Homo sapiens

- pIC50 [1]: 6.54
- pIC50 [2]: 6.54
SMILES: Clc1ccc(N/N=C(\c2ccccc2)c2ccccn2)nc1

- chromatographic logD [3]: 0.1
SMILES: O=C(O)c1ccncc1NCc1ccco1

- pIC50 [4]: 4.59
SMILES: CCCCc1oc2ccccc2c1C(=O)c1cc(I)c(OCCN)c(I)c1

- pIC50 [5]: 7.46
- pIC50 [6]: 7.46
- pIC50 [7]: 7.46
SMILES: CN(c1ccccc1)c1ccc2c(c1)CCC[C@H]2CNc1cnccc1C(=O)O

- pIC50 [4]: 4.59
SMILES: CCCCc1oc2ccccc2c1C(=O)c1cc(I)c(OCC[N+](C)(C)C)c(I)c1

- pIC50 [8]: 5.42
SMILES: Cc1cc(C2CCCCC2)n(O)c(=O)c1 [CICLOPIROX]
- pIC50 [9]: 6.70

- pEC50 [11]: 5.07
- pEC50 [12]: 5.20
SMILES: COC(=O)/C=C/C(=O)N(O)CCCCNCc1ccc(COC(=O)Nc2cccc3ccccc23)cc1
- GI50 [10]: 5.1 µM

- chromatographic logD [3]: 1.8
SMILES: O=c1[nH]c(Oc2cnn(Cc3ccccc3)c2)nc2cnccc12

- pIC50 [13]: 7.64
- pIC50 [14]: < 4.00
SMILES: CC(C)(C)OC(=O)C[C@@H]1CCN(C(c2ccc(-c3ccncc3)cc2)c2cc3c(cc2O)OCO3)C1 (stereo partly drawn)

- pIC50 [15]: 4.55
SMILES: CC(/C=C/C(=O)NO)=C\[C@@H](C)C(=O)c1ccc(N(C)C)cc1 [TRICHOSTATIN]

- pKi [16]: 7.51
SMILES: O=C(O)c1ccnc(-c2ccc[nH]2)c1

- GI50 [17]: 8 µM
- GI50 [18]: 8 µM
SMILES: Cc1nn(-c2nc3ccccc3[nH]2)c(O)c1-c1ccccc1

- pIC50 [19]: 5.85
SMILES: CNc1cnccc1C(=O)O

- pIC50 [20]: 4.52
SMILES: CC(C)C(=O)NC(c1ccco1)c1ccc2cccnc2c1O (stereo not drawn)

- pIC50 [21]: 5.37
SMILES: O=C(O)/C=C/C(=O)N(O)CCCCNCc1ccc(COC(=O)Nc2cccc3ccccc23)cc1
